# Laboratory results published in the supplement of paper PMC10307832.
# How the values were obtained:
# Experiment in all cases: relative viability (nuclei count vs DMSO), 5 days (fraction); higher = more cells survive
# Palbociclib + Luminespib = compound: CC(=O)c1c(C)c2cnc(Nc3ccc(N4CCNCC4)cn3)nc2n(C2CCCC2)c1=O [Palbociclib] + CCNC(=O)c1noc(-c2cc(C(C)C)c(O)cc2O)c1-c1ccc(CN2CCOCC2)cc1 [Luminespib] (partner 0.01 µM)
# Summary of the method: (§1)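 A single step with final 0.05% Triton X-100, 1% formaldehyde and 1 ug/ml Hoechst fixed the cells and stained nuclei 5 days after treatment. Lung cancer cell lines in 1536-well plates had been treated by pin tool the day after seeding with one drug alone or a fixed anchor-drug dose plus five library-drug doses (not always all listed) in √10 steps, and nuclei were counted on 4× images. Relative viability is the ratio of nuclei in treated wells to nuclei in vehicle wells, taken as the median of duplicate plates.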
# Palbociclib + Dasatinib = compound: CC(=O)c1c(C)c2cnc(Nc3ccc(N4CCNCC4)cn3)nc2n(C2CCCC2)c1=O [Palbociclib] + Cc1nc(Nc2ncc(C(=O)Nc3c(C)cccc3Cl)s2)cc(N2CCN(CCO)CC2)n1 [Dasatinib] (partner 0.075 µM)
# Summary of the method: as §1
# Palbociclib + Olaparib = compound: CC(=O)c1c(C)c2cnc(Nc3ccc(N4CCNCC4)cn3)nc2n(C2CCCC2)c1=O [Palbociclib] + O=C(c1cc(Cc2n[nH]c(=O)c3ccccc23)ccc1F)N1CCN(C(=O)C2CC2)CC1 [Olaparib] (partner 8 µM)
# Summary of the method: as §1
Cell Line,relative viability (Palbociclib + Luminespib; first compound 0.01 µM),relative viability (Palbociclib + Luminespib; first compound 0.1 µM),relative viability (Palbociclib + Luminespib; first compound 0.3162 µM),relative viability (Palbociclib + Luminespib; first compound 1 µM),relative viability (Palbociclib + Dasatinib; first compound 0.01 µM),relative viability (Palbociclib + Dasatinib; first compound 0.1 µM),relative viability (Palbociclib + Dasatinib; first compound 0.3162 µM),relative viability (Palbociclib + Dasatinib; first compound 1 µM),relative viability (Palbociclib + Olaparib; first compound 0.01 µM),relative viability (Palbociclib + Olaparib; first compound 0.03162 µM),relative viability (Palbociclib + Olaparib; first compound 0.1 µM),relative viability (Palbociclib + Olaparib; first compound 0.3162 µM),relative viability (Palbociclib + Olaparib; first compound 1 µM),relative viability (Palbociclib + Luminespib; first compound 0.03162 µM),relative viability (Palbociclib + Dasatinib; first compound 0.03162 µM)
NCI-H2347,0.41,0.366,0.429,0.453,0.341,0.266,0.247,0.245,0.606,0.549,0.564,0.51,0.49,,
NCI-H596,0.91,0.968,0.958,1.04,0.606,0.551,0.599,0.613,0.708,0.809,0.724,0.707,0.68,,
LXF-289,0.627,0.604,0.709,0.554,0.208,0.164,0.148,0.174,1.1,1.08,0.951,0.969,0.865,0.71,0.0993
NCI-H1975,0.161,0.102,0.198,0.193,0.373,0.323,0.322,0.297,0.859,0.762,0.737,0.623,0.61,0.189,0.347
NCI-H1355,0.74,0.811,0.568,0.521,0.774,0.588,0.569,0.384,0.796,0.734,0.673,0.65,0.621,0.776,0.587
NCI-H1993,0.8,0.762,0.671,0.888,0.68,0.509,0.415,0.439,1.14,0.907,0.945,0.846,0.703,0.781,0.542
LCLC-103H,0.978,0.848,0.718,0.584,0.44,0.452,0.367,0.307,0.701,0.709,0.731,0.669,0.584,0.808,0.331
NCI-H2228,0.173,0.149,0.126,0.098,0.546,0.418,0.409,0.408,0.724,0.624,0.55,0.64,0.465,0.182,0.449
NCI-H441,0.317,0.38,0.26,0.229,0.518,0.522,0.362,0.221,0.657,0.449,0.45,0.452,0.298,0.371,0.525
NCI-H1650,0.178,0.186,0.186,0.172,0.29,0.275,0.275,0.208,0.795,0.562,0.551,0.642,0.513,0.211,0.287
NCI-H650,0.921,0.629,0.793,0.609,0.516,0.355,0.398,0.289,0.44,,0.318,0.354,0.246,0.613,0.328
SK-MES-1,0.755,0.587,0.42,0.376,0.346,0.165,0.129,0.188,0.695,0.57,0.446,0.343,0.205,0.462,0.358
BEN,0.619,0.269,0.205,0.194,0.39,0.229,0.235,0.208,1.01,0.992,0.615,0.945,0.594,0.225,0.324
NCI-H2170,0.536,0.558,0.707,0.536,0.488,0.549,0.534,0.521,0.675,0.61,0.551,0.488,0.436,0.536,0.515
NCI-H1915,0.807,0.793,0.71,0.629,0.293,0.28,0.247,0.245,0.244,,0.257,0.258,0.244,0.674,0.247
NCI-H1395,0.661,0.631,0.668,0.587,0.399,0.345,0.325,0.333,0.429,0.423,0.421,0.477,0.514,0.561,0.382
NCI-H520,0.203,0.225,0.216,0.222,0.206,0.142,0.153,0.171,0.289,0.35,0.255,0.199,0.173,0.214,0.458
COR-L23,0.647,0.511,0.429,0.434,0.575,0.241,0.334,0.2,0.312,0.271,0.233,0.194,0.175,0.515,0.431
NCI-H2126,0.869,0.564,0.535,0.369,0.574,0.355,0.387,0.27,0.972,0.833,0.698,0.719,0.526,0.79,0.449
NCI-H1651,0.872,0.774,0.791,0.677,0.394,0.352,0.385,0.308,0.177,0.196,0.225,0.203,0.206,0.814,0.366
NCI-H727,0.309,0.285,0.352,0.405,0.342,0.299,0.242,0.218,0.738,0.728,0.699,0.728,0.568,0.293,0.302
NCI-H460,0.0282,0.0309,0.0231,0.026,0.459,0.392,0.314,0.162,0.433,0.289,0.378,0.323,0.165,0.0413,0.429
NCI-H3122,0.081,0.0794,0.0926,0.0834,0.762,0.386,0.414,0.231,0.596,0.576,0.635,0.584,0.528,0.0895,0.546
CAL-12T,0.367,0.463,0.277,0.206,0.486,0.248,0.273,0.22,0.667,0.675,0.577,0.531,0.505,0.318,0.383
NCI-H23,0.216,0.219,0.196,0.236,0.835,0.8,0.732,0.541,0.375,0.311,0.325,0.305,0.289,0.214,
A-427,0.991,0.691,0.74,0.501,0.672,0.561,0.523,0.485,0.737,0.626,0.514,0.514,0.391,0.809,0.607
LOU-NH91,0.341,0.271,0.348,0.324,0.66,0.429,0.434,0.41,0.959,0.696,0.677,0.664,0.559,0.322,0.425
NCI-H2023,0.723,0.515,0.551,0.343,0.536,0.351,0.453,0.246,0.467,0.478,0.402,0.374,0.262,0.532,0.488
